Holding throughout (format): physicochemical
Data set [1] in a line: Hygroscopicity: moisture absorption weight gain in artificial climate box. The settings on record: temperature 25° C., relative humidity 75%. Here is the method:
Specific test method: A dry glass weighing bottle with plug (outer diameter 50 mm, height 15 mm) was placed in an artificial climate box (temperature 25° C., relative humidity 75%) one day before the test, and was accurately weighed (m1). An appropriate amount of test sample was spread in the weighing bottle (thickness of test sample is generally about 1 mm), and it was accurately weighed (m2). The weighing bottle was opened and placed with the bottle cap under the above-mentioned constant temperature and humidity conditions. The weighing bottle was taken out at 5 min, 10 min, 20 min, 30 min, 60 min, 120 min and 180 min respectively, and accurately weighed (m3). The weight gain percentage was calculated according to the calculation formula: weight gain percentage=100%× (m3−m2)/(m2−m1).

Data set [2] in a line: Score of fluidity, adhesiveness and deliquescence at 25° C./75% RH. How it is done: (§1) Study method: 5 g of sample was weighed into a weighing dish (60*30 mm), and placed in an open position at 25° C./75% RH to observe the moisture-proof effect for 0˜3 h.
(§2) See Table 3-1 for the scoring standards of some examples. See Table 3-2 for the score results of fluidity, adhesiveness and deliquescence of moisture-proof L-α-glycerylphosphorylcholine.

A short description of data set [3]: Fluidity and repose angle before and after open storage at 25° C./75% RH for 0~3 h. How it is done: as §1
Data set [4] can be described thus: Passing rate of 20-mesh sieve at 25° C./75% RH. Here is the method: as §1, §2
[5] abbreviates: after open placing at 25° C./75% RH, 3 h.
[6] abbreviates: before placing at 25° C./75% RH.

Consider 3 compounds from patent publication US20260165974A1, “Moisture-proof L-a-glycerylphosphorylcholine” (NANJING NUTRABUILDING BIO-TECH CO., LTD., priority 2023, published 2026).

Turning to `C[N+](C)(C)CCOP(=O)([O-])OC[C@H](O)CO` [Raw material 2, L-α-glycerylphosphorylcholine], the weight gain percentage in data set [1] (5 min) was found to be 3.2%; in data set [1] (10 min), 4.1%; in data set [1] (20 min) it was 7.2%; in data set [1] (30 min), 9.4%; in data set [1] (60 min) it was 12.6%; in data set [1] (120 min), 14.4%. In addition, the weight gain percentage in data set [1] (180 min) stood at 18.7%.
Regarding `C[N+](C)(C)CCOP(=O)([O-])OC[C@H](O)CO` [Raw material, L-α-glycerylphosphorylcholine], the “score of fluidity, adhesiveness and deliquescence” value in data set [2] (5 min) came to 9; in data set [2] (10 min), 0; in data set [2] (20 min), 0; in data set [2] (30 min) it was 0; in data set [2] (60 min), 0; in data set [2] (120 min), 0. Further, the “score of fluidity, adhesiveness and deliquescence” value in data set [2] (180 min) is 0. Besides, the “Appearance and fluidity, After” value in data set [3] (setting [5]) is given as “All deliquescent and”. Moreover, in data set [3] (setting [5]), the “Repose angle, After” value is “unmeasurable”. In data set [3] (setting [6]), the “Appearance and fluidity, Before” value was “Crystalloid/particle, good”. In data set [3] (setting [6]), the “Repose angle, Before” value is reported as 41°. The “passing rate of 20-mesh sieve” value in data set [4] (5 min) is given as 97%; in data set [4] (10 min), 35%; in data set [4] (20 min), 24%; in data set [4] (30 min) it was 2%; in data set [4] (60 min), 0%; in data set [4] (120 min), 0%. In addition, in data set [4] (180 min), the “passing rate of 20-mesh sieve” value was found to be 0%.
On to `C[N+](C)(C)CCOP(=O)([O-])OC[C@H](O)CO` [Raw material 1, L-α-glycerylphosphorylcholine], for which the weight gain percentage in data set [1] (5 min) was 3.0%; in data set [1] (10 min) it was 4.2%; in data set [1] (20 min) it was 7.4%; in data set [1] (30 min), 9.5%; in data set [1] (60 min), 12.3%; in data set [1] (120 min), 14.6%. In addition, the weight gain percentage in data set [1] (180 min) was 18.5%.
